The assay has as its system primary rat mixed cortical cells. The assay can be described thus: In vitro myelination assay (MBP positive myelin strands, fold myelin pixels above background). It is filed as cell-based. The conditions noted are these: Rattus norvegicus, relative to baseline of no added compound; for fold induction at 1 µM: 1.0 μM compound, read-out: Fold myelin pixels above background, 1.0 μM; for fold induction at 10 µM: 10.0 μM compound, read-out: Fold myelin pixels above background, 10.0 μM. Put shortly:
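Fourteen-day treatment of primary P1 rat mixed cortical cultures, re-dosed at days 6 and 10, at 1.0 μM and 10.0 μM. MBP immunofluorescence was imaged at 10× and myelin strands quantified by software, normalised to untreated wells as fold above background.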

Molecules are shown by their SMILES. Bounds are passed on as bounds.

Consider `CCc1cc(Nc2ncn(-c3ccccc3)n2)cc(N2CCN(C3COC3)CC2)c1` [Compound 330, N-[3-ethyl-5-[4-(oxetan-3-yl)piperazin-1-yl]phenyl]-1-phenyl-1,2,4-triazol-3-amine], for which the fold induction at 1 µM was in the range of 1000 to 10000 and the fold induction at 10 µM was ≤ 1.

On to `Fc1cc(F)cc(-n2cnc(Nc3cc(C4CC4)nc(N4CC[C@H](F)C4)c3)n2)c1` [Compound 332, 2-cyclopropyl-N-[1-(3,5-difluorophenyl)-1,2,4-triazol-3-yl]-6-[(3S)-3-fluoropyrrolidin-1-yl]pyridin-4-amine], for which the fold induction at 1 µM fell in the range of 100 to 1000 and the fold induction at 10 µM lay in the range of 10 to 100.

Regarding `Cc1cc(Nc2ncn(-c3ccccc3)n2)cc(C2CCN(C)CC2)c1` [Compound 333, N-[3-methyl-5-(1-methyl-4-piperidyl)phenyl]-1-phenyl-1,2,4-triazol-3-amine], the fold induction at 1 µM was 1000 to 10000 and the fold induction at 10 µM is ≤ 1.

On to `Cc1cc(Nc2ncn(-c3ccccc3)n2)cc(NC2CCN(C3COC3)CC2)c1` [Compound 334, 5-methyl-N1-[1-(oxetan-3-yl)-4-piperidyl]-N3-(1-phenyl-1,2,4-triazol-3-yl)benzene-1,3-diamine], for which the fold induction at 1 µM lay in the range of 100 to 1000 and the fold induction at 10 µM is 1000 to 10000.

As for `Clc1cc(Nc2ncn(-c3ccccc3)n2)cc(N2CCOCC2)c1` [Compound 335, N-(3-chloro-5-morpholino-phenyl)-1-phenyl-1,2,4-triazol-3-amine], the fold induction at 1 µM is 1000 to 10000 and the fold induction at 10 µM was in the range of 10 to 100.

`Fc1cc(Nc2ncn(-c3ccccc3)n2)cc(N2CCCC2)c1` [Compound 336, N-(3-fluoro-5-pyrrolidin-1-yl-phenyl)-1-phenyl-1,2,4-triazol-3-amine]: the fold induction at 1 µM was in the range of 1 to 10 and the fold induction at 10 µM is ≤ 1.

Consider `Cc1cc(Nc2ncn(-c3ccccc3)n2)cc(N2CCCN(C3CC3)CC2)c1` [Compound 337, N-[3-(4-cyclopropyl-1,4-diazepan-1-yl)-5-methyl-phenyl]-1-phenyl-1,2,4-triazol-3-amine], for which the fold induction at 1 µM fell in the range of 100 to 1000 and the fold induction at 10 µM was ≤ 1.

As to `CCc1cc(Nc2ncn(-c3cc(C)ccc3F)n2)cc(N2CCN(C3COC3)CC2)c1` [Compound 338, N-[3-ethyl-5-[4-(oxetan-3-yl)piperazin-1-yl]phenyl]-1-(2-fluoro-5-methyl-phenyl)-1,2,4-triazol-3-amine], the fold induction at 1 µM was 1 to 10 and the fold induction at 10 µM was 10 to 100.

As for `Fc1cncc(-n2cnc(Nc3cc(C4CC4)cc(N4CCN(C5COC5)CC4)c3)n2)c1` [Compound 339, N-[3-cyclopropyl-5-[4-(oxetan-3-yl)piperazin-1-yl]phenyl]-1-(5-fluoro-3-pyridyl)-1,2,4-triazol-3-amine], the fold induction at 1 µM fell in the range of 100 to 1000 and the fold induction at 10 µM was 10 to 100.

On to `Cc1cc(Nc2ncn(-c3ccccc3)n2)cc(C2CCCN(C3CC3)C2)c1` (centres unmarked) [Compound 340, N-[3-(1-cyclopropyl-3-piperidyl)-5-methyl-phenyl]-1-phenyl-1,2,4-triazol-3-amine], for which the fold induction at 1 µM is 100 to 1000 and the fold induction at 10 µM was ≤ 1.

In the case of `CCc1cc(Nc2ncn(-c3cnccn3)n2)cc(N2CC(N3CCOCC3)C2)c1` [Compound 341, N-[3-ethyl-5-(3-morpholinoazetidin-1-yl)phenyl]-1-pyrazin-2-yl-1,2,4-triazol-3-amine], the fold induction at 1 µM was ≤ 1 and the fold induction at 10 µM is 1 to 10.

In the case of `Cc1cc(Nc2ncn(-c3cccnc3)n2)cc(NC2CCN(C3COC3)CC2)c1` [Compound 342, 5-methyl-N1-[1-(oxetan-3-yl)-4-piperidyl]-N3-[1-(3-pyridyl)-1,2,4-triazol-3-yl]benzene-1,3-diamine], the fold induction at 1 µM was in the range of 1000 to 10000 and the fold induction at 10 µM was 10 to 100.

Turning to `Fc1cc(Nc2ncn(-c3ccc(F)cc3F)n2)cc(N2CCCOCC2)c1` [Compound 343, 1-(2,4-difluorophenyl)-N-[3-fluoro-5-(1,4-oxazepan-4-yl)phenyl]-1,2,4-triazol-3-amine], the fold induction at 1 µM was ≤ 1 and the fold induction at 10 µM was in the range of 100 to 1000.

As to `CS(=O)(=O)c1cc(Nc2ncn(-c3cc(F)cc(F)c3)n2)cc(N2CCN(C3COC3)CC2)c1` [Compound 344, 1-(3,5-difluorophenyl)-N-[3-methylsulfonyl-5-[4-(oxetan-3-yl)piperazin-1-yl]phenyl]-1,2,4-triazol-3-amine], the fold induction at 1 µM lay within 100 to 1000 and the fold induction at 10 µM fell in the range of 10 to 100.

For the molecule `COc1ccc(-n2cnc(Nc3cc(Cl)nc(N4CCOCC4)c3)n2)cc1OC` [Compound 345, 2-chloro-N-[1-(3,4-dimethoxyphenyl)-1,2,4-triazol-3-yl]-6-morpholino-pyridin-4-amine], the fold induction at 1 µM lay within 10 to 100 and the fold induction at 10 µM lay in the range of 1 to 10.

As to `Fc1cc(F)cc(-n2cnc(Nc3cc(Br)cc(N4CCOCC4)c3)n2)c1` [Compound 346, N-(3-bromo-5-morpholino-phenyl)-1-(3,5-difluorophenyl)-1,2,4-triazol-3-amine], the fold induction at 1 µM lay within 1000 to 10000 and the fold induction at 10 µM was 1000 to 10000.

As for `CN(C)C1CCN(c2cc(F)cc(Nc3ncn(-c4ccc(F)cc4F)n3)c2)C1` (centres unmarked) [Compound 347, 1-(2,4-difluorophenyl)-N-[3-[3-(dimethylamino)pyrrolidin-1-yl]-5-fluoro-phenyl]-1,2,4-triazol-3-amine], the fold induction at 1 µM is ≤ 1 and the fold induction at 10 µM is ≤ 1.

As to `FC(F)c1cc(Nc2ncn(-c3ccccc3)n2)cc(N2CCN(C3CC3)CC2)c1` [Compound 348, N-[3-(4-cyclopropylpiperazin-1-yl)-5-(difluoromethyl)phenyl]-1-phenyl-1,2,4-triazol-3-amine], the fold induction at 1 µM was in the range of 1000 to 10000 and the fold induction at 10 µM was 100 to 1000.

Consider `Cc1cc(Nc2ncn(-c3cc(F)cc(F)c3)n2)cc(N2CCN(C)C3(COC3)C2)c1` [Compound 349, 1-(3,5-difluorophenyl)-N-[3-methyl-5-(9-methyl-2-oxa-6,9-diazaspiro[3.5]nonan-6-yl)phenyl]-1,2,4-triazol-3-amine], for which the fold induction at 1 µM lay within 10 to 100 and the fold induction at 10 µM was 100 to 1000.

Consider `Cc1cc(Nc2ncn(-c3cc(F)cc(F)c3)n2)cc(N2CCN(C(=O)OCC(F)(F)F)CC2)c1` [Compound 350, 2,2,2-trifluoroethyl 4-[3-[[1-(3,5-difluorophenyl)-1,2,4-triazol-3-yl]amino]-5-methyl-phenyl]piperazine-1-carboxylate], for which the fold induction at 1 µM was ≤ 1 and the fold induction at 10 µM is ≤ 1.

For the molecule `Fc1cc(Nc2ncn(-c3cccc(F)c3)n2)cc(NC2CNC2)c1` [Compound 351, N1-(azetidin-3-yl)-5-fluoro-N3-[1-(3-fluorophenyl)-1,2,4-triazol-3-yl]benzene-1,3-diamine], the fold induction at 1 µM fell in the range of 10 to 100 and the fold induction at 10 µM was ≤ 1.

In the case of `Cc1cc(Nc2ncn(-c3cc(F)cc(F)c3)n2)cc(N2CCN(C(=O)C(F)(F)F)CC2)c1` [Compound 352, 1-[4-[3-[[1-(3,5-difluorophenyl)-1,2,4-triazol-3-yl]amino]-5-methyl-phenyl]piperazin-1-yl]-2,2,2-trifluoro-ethanone], the fold induction at 1 µM was ≤ 1 and the fold induction at 10 µM lay within 100 to 1000.

Values taken from patent US10766869B2, “Triazoles for the treatment of demyelinating dieases” (Vertex Pharmaceuticals Incorporated, priority 2015, dated 2020).
